Assay results as given in the NIST ThermoML archive (doi:10.1021/je400709f).
Numbers after ± are expanded uncertainties.

Test: excess molar enthalpy (molar enthalpy of mixing); xn = mol fraction of the nth substance listed
Settings: 298.15 K, 101 kPa, Liquid, Calvet calorimetry

CCCCCCCC[n+]1ccn(C)c1.F[B-](F)(F)F [1-methyl-3-octylimidazolium tetrafluoroborate] + CCCCCO
Settings | excess molar enthalpy [kcal/mol]
x1 = 0.213 | 0.35 ± 0.00813
x1 = 0.218 | 0.358 ± 0.00813
x1 = 0.223 | 0.365 ± 0.00837
x1 = 0.229 | 0.373 ± 0.00837
x1 = 0.234 | 0.38 ± 0.0086
x1 = 0.24 | 0.388 ± 0.0086
x1 = 0.244 | 0.393 ± 0.0086
x1 = 0.249 | 0.398 ± 0.00884
x1 = 0.254 | 0.404 ± 0.00884
x1 = 0.259 | 0.41 ± 0.00908
x1 = 0.264 | 0.416 ± 0.00932
x1 = 0.269 | 0.423 ± 0.00932
x1 = 0.275 | 0.429 ± 0.00932
x1 = 0.281 | 0.435 ± 0.00956
x1 = 0.287 | 0.443 ± 0.0098
x1 = 0.293 | 0.45 ± 0.0098
x1 = 0.3 | 0.457 ± 0.01
x1 = 0.306 | 0.464 ± 0.01
x1 = 0.314 | 0.472 ± 0.0103
x1 = 0.321 | 0.481 ± 0.0105
x1 = 0.329 | 0.49 ± 0.0108
x1 = 0.338 | 0.5 ± 0.011
x1 = 0.346 | 0.51 ± 0.011
x1 = 0.356 | 0.52 ± 0.0112
x1 = 0.365 | 0.53 ± 0.0115
x1 = 0.372 | 0.537 ± 0.0117
x1 = 0.378 | 0.544 ± 0.0117
x1 = 0.385 | 0.552 ± 0.012
x1 = 0.392 | 0.559 ± 0.0122
x1 = 0.4 | 0.567 ± 0.0122
x1 = 0.407 | 0.574 ± 0.0124
x1 = 0.415 | 0.581 ± 0.0124
x1 = 0.424 | 0.588 ± 0.0127
x1 = 0.432 | 0.595 ± 0.0127
x1 = 0.441 | 0.6 ± 0.0129
x1 = 0.451 | 0.604 ± 0.0129
x1 = 0.46 | 0.607 ± 0.0129
x1 = 0.471 | 0.608 ± 0.0129
x1 = 0.481 | 0.606 ± 0.0129
x1 = 0.492 | 0.604 ± 0.0129
x1 = 0.504 | 0.601 ± 0.0129
x1 = 0.516 | 0.597 ± 0.0127
x1 = 0.529 | 0.592 ± 0.0127
x1 = 0.542 | 0.586 ± 0.0124
x1 = 0.557 | 0.578 ± 0.0124
x1 = 0.572 | 0.568 ± 0.0122
x1 = 0.587 | 0.558 ± 0.012
x1 = 0.604 | 0.546 ± 0.0117
x1 = 0.622 | 0.532 ± 0.0115
x1 = 0.64 | 0.516 ± 0.0112
x1 = 0.648 | 0.508 ± 0.011
x1 = 0.656 | 0.501 ± 0.0108
x1 = 0.664 | 0.492 ± 0.0108
x1 = 0.673 | 0.484 ± 0.0105
x1 = 0.681 | 0.475 ± 0.0103
x1 = 0.69 | 0.465 ± 0.0103
x1 = 0.699 | 0.455 ± 0.01
x1 = 0.708 | 0.444 ± 0.0098
x1 = 0.718 | 0.433 ± 0.00956
x1 = 0.728 | 0.421 ± 0.00932
x1 = 0.738 | 0.408 ± 0.00908
x1 = 0.748 | 0.396 ± 0.00884
x1 = 0.759 | 0.382 ± 0.0086
x1 = 0.77 | 0.367 ± 0.00837
x1 = 0.781 | 0.352 ± 0.00813
x1 = 0.792 | 0.336 ± 0.00765
x1 = 0.804 | 0.319 ± 0.00741
x1 = 0.817 | 0.301 ± 0.00717
x1 = 0.829 | 0.283 ± 0.00669
x1 = 0.842 | 0.263 ± 0.00645
x1 = 0.856 | 0.242 ± 0.00598
x1 = 0.87 | 0.22 ± 0.00574
x1 = 0.884 | 0.197 ± 0.00526
x1 = 0.899 | 0.173 ± 0.00502
x1 = 0.914 | 0.148 ± 0.00454
x1 = 0.93 | 0.12 ± 0.0043
x1 = 0.947 | 0.0927 ± 0.00406
x1 = 0.964 | 0.0626 ± 0.00382
x1 = 0.982 | 0.032 ± 0.00359

CCCCCCCC[n+]1ccn(C)c1.F[B-](F)(F)F [1-methyl-3-octylimidazolium tetrafluoroborate] + CCCO
Settings | excess molar enthalpy [kcal/mol]
x1 = 0.136 | 0.302 ± 0.00741
x1 = 0.138 | 0.306 ± 0.00741
x1 = 0.141 | 0.311 ± 0.00741
x1 = 0.144 | 0.317 ± 0.00789
x1 = 0.146 | 0.322 ± 0.00789
x1 = 0.149 | 0.327 ± 0.00789
x1 = 0.152 | 0.333 ± 0.00789
x1 = 0.156 | 0.339 ± 0.00813
x1 = 0.159 | 0.345 ± 0.00813
x1 = 0.163 | 0.352 ± 0.00837
x1 = 0.166 | 0.358 ± 0.0086
x1 = 0.169 | 0.363 ± 0.00837
x1 = 0.173 | 0.368 ± 0.00837
x1 = 0.176 | 0.374 ± 0.00884
x1 = 0.179 | 0.38 ± 0.00884
x1 = 0.183 | 0.385 ± 0.00884
x1 = 0.187 | 0.391 ± 0.00908
x1 = 0.19 | 0.397 ± 0.00932
x1 = 0.194 | 0.404 ± 0.00908
x1 = 0.199 | 0.411 ± 0.00932
x1 = 0.203 | 0.419 ± 0.00956
x1 = 0.208 | 0.426 ± 0.0098
x1 = 0.212 | 0.435 ± 0.01
x1 = 0.217 | 0.443 ± 0.01
x1 = 0.223 | 0.451 ± 0.01
x1 = 0.228 | 0.46 ± 0.0103
x1 = 0.234 | 0.469 ± 0.0105
x1 = 0.24 | 0.479 ± 0.0108
x1 = 0.247 | 0.489 ± 0.011
x1 = 0.253 | 0.5 ± 0.011
x1 = 0.261 | 0.511 ± 0.0112
x1 = 0.268 | 0.523 ± 0.0115
x1 = 0.276 | 0.534 ± 0.0117
x1 = 0.285 | 0.546 ± 0.012
x1 = 0.29 | 0.554 ± 0.0122
x1 = 0.296 | 0.562 ± 0.0122
x1 = 0.302 | 0.57 ± 0.0124
x1 = 0.309 | 0.577 ± 0.0124
x1 = 0.315 | 0.585 ± 0.0127
x1 = 0.322 | 0.592 ± 0.0129
x1 = 0.329 | 0.6 ± 0.0129
x1 = 0.337 | 0.607 ± 0.0131
x1 = 0.345 | 0.614 ± 0.0131
x1 = 0.353 | 0.62 ± 0.0134
x1 = 0.362 | 0.624 ± 0.0134
x1 = 0.371 | 0.629 ± 0.0134
x1 = 0.381 | 0.632 ± 0.0134
x1 = 0.391 | 0.634 ± 0.0136
x1 = 0.401 | 0.635 ± 0.0136
x1 = 0.413 | 0.635 ± 0.0136
x1 = 0.425 | 0.636 ± 0.0136
x1 = 0.437 | 0.635 ± 0.0136
x1 = 0.451 | 0.634 ± 0.0136
x1 = 0.465 | 0.632 ± 0.0134
x1 = 0.48 | 0.628 ± 0.0134
x1 = 0.496 | 0.623 ± 0.0134
x1 = 0.513 | 0.617 ± 0.0131
x1 = 0.532 | 0.61 ± 0.0131
x1 = 0.552 | 0.598 ± 0.0129
x1 = 0.56 | 0.592 ± 0.0127
x1 = 0.569 | 0.586 ± 0.0127
x1 = 0.578 | 0.579 ± 0.0124
x1 = 0.587 | 0.571 ± 0.0122
x1 = 0.596 | 0.563 ± 0.0122
x1 = 0.606 | 0.555 ± 0.012
x1 = 0.616 | 0.545 ± 0.0117
x1 = 0.627 | 0.535 ± 0.0115
x1 = 0.638 | 0.525 ± 0.0115
x1 = 0.649 | 0.513 ± 0.0112
x1 = 0.66 | 0.501 ± 0.011
x1 = 0.672 | 0.488 ± 0.0105
x1 = 0.685 | 0.474 ± 0.0103
x1 = 0.698 | 0.458 ± 0.01
x1 = 0.711 | 0.443 ± 0.0098
x1 = 0.725 | 0.425 ± 0.00932
x1 = 0.74 | 0.407 ± 0.00908
x1 = 0.755 | 0.387 ± 0.0086
x1 = 0.771 | 0.366 ± 0.00837
x1 = 0.787 | 0.343 ± 0.00789
x1 = 0.804 | 0.319 ± 0.00741
x1 = 0.822 | 0.293 ± 0.00693
x1 = 0.841 | 0.265 ± 0.00645
x1 = 0.86 | 0.235 ± 0.00598
x1 = 0.881 | 0.202 ± 0.0055
x1 = 0.902 | 0.168 ± 0.00478
x1 = 0.925 | 0.131 ± 0.0043
x1 = 0.949 | 0.0915 ± 0.00406
x1 = 0.974 | 0.0476 ± 0.00359
